Test results published in ChEMBL document CHEMBL3045550, “Design, synthesis and biological activities of new strobilurin derivatives containing substituted pyrazoles” (2010).

How the values were obtained:
Assay type in all cases: functional
Tetranychus cinnabarinus [1] = assay: Acaricidal activity against Tetranychus cinnabarinus (carmine spider mite) in kidney bean plants assessed as mortality at 38 mg/l after 48 hr relative to control
Tetranychus cinnabarinus [2] = assay: Acaricidal activity against Tetranychus cinnabarinus (carmine spider mite) in kidney bean plants assessed as mortality at 150 mg/l after 48 hr relative to control
Tetranychus cinnabarinus [3] = assay: Acaricidal activity against Tetranychus cinnabarinus (carmine spider mite) in kidney bean plants assessed as mortality at 600 mg/l after 48 hr relative to control
[4] = test system: Blumeria graminis f. sp. tritici; assay: Antifungal activity against Blumeria graminis f. sp. tritici infected seven-day-old wheat seedlings assessed as disease control at 1.56 mg/l after 7 days relative to control
[5] = test system: Blumeria graminis f. sp. tritici; assay: Antifungal activity against Blumeria graminis f. sp. tritici infected seven-day-old wheat seedlings assessed as disease control at 12.5 mg/l after 7 days relative to control
[6] = test system: Blumeria graminis f. sp. tritici; assay: Antifungal activity against Blumeria graminis f. sp. tritici infected seven-day-old wheat seedlings assessed as disease control at 400 mg/l after 7 days relative to control
[7] = test system: Pseudoperonospora cubensis; assay: Antifungal activity against Pseudoperonospora cubensis infected cucumber leaves assessed as disease control at 3.12 mg/l after 5 days relative to control
[8] = test system: Pseudoperonospora cubensis; assay: Antifungal activity against Pseudoperonospora cubensis infected cucumber leaves assessed as disease control at 6.25 mg/l after 5 days relative to control
[9] = test system: Pseudoperonospora cubensis; assay: Antifungal activity against Pseudoperonospora cubensis infected cucumber leaves assessed as disease control at 25 mg/l after 5 days relative to control
[10] = test system: Pseudoperonospora cubensis; assay: Antifungal activity against Pseudoperonospora cubensis infected cucumber leaves assessed as disease control at 400 mg/l after 5 days relative to control
Botrytis cinerea = assay: Antifungal activity against Botryotinia fuckeliana infected cucumber leaves assessed as disease control at 400 mg/l after 4 days relative to control
Pyricularia oryzae = assay: Antifungal activity against Magnaporthe oryzae infected 12 day old rice plant assessed as disease control at 400 mg/l after 6 days relative to control
Tetranychus cinnabarinus [11] = assay: Acaricidal activity against Tetranychus cinnabarinus (carmine spider mite) in kidney bean plants assessed as mortality at 1.25 mg/l after 48 hr relative to control
Tetranychus cinnabarinus [12] = assay: Acaricidal activity against Tetranychus cinnabarinus (carmine spider mite) in kidney bean plants assessed as mortality at 2.5 mg/l after 48 hr relative to control
Tetranychus cinnabarinus [13] = assay: Acaricidal activity against Tetranychus cinnabarinus (carmine spider mite) in kidney bean plants assessed as mortality at 5 mg/l after 48 hr relative to control
Tetranychus cinnabarinus [14] = assay: Acaricidal activity against Tetranychus cinnabarinus (carmine spider mite) in kidney bean plants assessed as mortality at 10 mg/l after 48 hr relative to control
Tetranychus cinnabarinus [15] = assay: Acaricidal activity against Tetranychus cinnabarinus (carmine spider mite) in kidney bean plants assessed as mortality at 20 mg/l after 48 hr relative to control
Tetranychus cinnabarinus [16] = assay: Acaricidal activity against Tetranychus cinnabarinus (carmine spider mite) in kidney bean plants assessed as mortality at 40 mg/l after 48 hr relative to control

Compound | Activity (Tetranychus cinnabarinus [1]) | Activity (Tetranychus cinnabarinus [2]) | Activity (Tetranychus cinnabarinus [3]) | Activity [4] | Activity [5] | Activity [6] | Activity [7] | Activity [8] | Activity [9] | Activity [10] | Activity (Botrytis cinerea) | Activity (Pyricularia oryzae) | Activity (Tetranychus cinnabarinus [11]) | Activity (Tetranychus cinnabarinus [12]) | Activity (Tetranychus cinnabarinus [13]) | Activity (Tetranychus cinnabarinus [14]) | Activity (Tetranychus cinnabarinus [15]) | Activity (Tetranychus cinnabarinus [16])
CO/C=C(/C(=O)OC)c1ccccc1COc1cc(-c2ccc(C)cc2C)nn1C [METHYL 2-(2-((3-(2,4-DIMETHYLPHENYL)-1-METHYL-1H-PYRAZOL-5-YLOXY)METHYL)PHENYL)-3-METHOXYACRYLATE] | 0% | 0% | 100% | 80% | 100% | 100% | 20% | 70% | 100% | 100% | 50% | 100% | – | – | – | – | – | –
CO/C=C(/C(=O)OC)c1ccccc1COc1c(C)c(-c2ccc(C)cc2C)nn1C | 100% | 100% | 100% | 90% | 100% | 100% | 80% | 98% | 100% | 100% | 50% | 100% | 28% | 36% | 85% | 89% | 100% | 100%
CO/C=C(/C(=O)OC)c1ccccc1COc1cc(-c2ccc(Br)cc2)nn1C [METHYL 2-(2-((3-(4-BROMOPHENYL)-1-METHYL-1H-PYRAZOL-5-YLOXY)METHYL)PHENYL)-3-METHOXYACRYLATE] | 57% | 71% | 100% | 10% | 100% | 100% | 60% | 85% | 100% | 100% | 0% | 70% | – | – | – | – | – | –
CO/C=C(/C(=O)OC)c1ccccc1COc1c(C)c(-c2ccc(C)cc2)nn1C [METHYL 2-(2-((1,4-DIMETHYL-3-P-TOLYL-1H-PYRAZOL-5-YLOXY)METHYL)PHENYL)-3-METHOXYACRYLATE] | 0% | 0% | 100% | 45% | 100% | 100% | 40% | 75% | 100% | 100% | 0% | 0% | – | – | – | – | – | –
CO/C=C(/C(=O)OC)c1ccccc1COc1c(C)c(-c2ccc(C(C)(C)C)cc2)nn1C [METHYL 2-(2-((3-(4-TERT-BUTYLPHENYL)-1,4-DIMETHYL-1H-PYRAZOL-5-YLOXY)METHYL)PHENYL)-3-METHOXYACRYLATE] | 0% | 0% | 100% | 0% | 10% | 90% | 0% | 0% | 20% | 95% | 50% | 50% | – | – | – | – | – | –
CO/C=C(/C(=O)OC)c1ccccc1COc1c(C)c(-c2ccc(C)c(C)c2)nn1C [METHYL 2-(2-((3-(3,4-DIMETHYLPHENYL)-1,4-DIMETHYL-1H-PYRAZOL-5-YLOXY)METHYL)PHENYL)-3-METHOXYACRYLATE] | 0% | 80% | 100% | 70% | 100% | 100% | 30% | 85% | 100% | 100% | 50% | 100% | – | – | – | – | – | –
CO/C=C(/C(=O)OC)c1ccccc1COc1c(C)c(-c2ccccc2)nn1C | 0% | 0% | 100% | 55% | 100% | 100% | 40% | 60% | 100% | 100% | 0% | 0% | – | – | – | – | – | –
CO/C=C(/C(=O)OC)c1ccccc1COc1cc(-c2ccccc2Cl)nn1C | 0% | 0% | 100% | 40% | 100% | 100% | 0% | 0% | 100% | 100% | 0% | 0% | – | – | – | – | – | –
CO/C=C(/C(=O)OC)c1ccccc1COc1c(C)c(-c2ccc(OC)cc2)nn1C [METHYL 3-METHOXY-2-(2-((3-(4-METHOXYPHENYL)-1,4-DIMETHYL-1H-PYRAZOL-5-YLOXY)METHYL)PHENYL)ACRYLATE] | 0% | 0% | 90% | 95% | 100% | 100% | 55% | 96% | 100% | 100% | 100% | 100% | – | – | – | – | – | –
CO/C=C(/C(=O)OC)c1ccccc1COc1cc(-c2ccc(Cl)cc2)nn1C [PYRAOXYSTROBIN] | 0% | 0% | 100% | 0% | 75% | 100% | 100% | 100% | 100% | 100% | 100% | 100% | – | – | – | – | – | –
CCc1ccc(-c2nn(C)c(OCc3ccccc3/C(=C\OC)C(=O)OC)c2C)cc1 [METHYL 2-(2-((3-(4-ETHYLPHENYL)-1,4-DIMETHYL-1H-PYRAZOL-5-YLOXY)METHYL)PHENYL)-3-METHOXYACRYLATE] | 30% | 100% | 100% | 0% | 100% | 100% | 20% | 60% | 100% | 100% | 0% | 0% | – | – | – | – | – | –
CO/C=C(/C(=O)OC)c1ccccc1COc1c(C)c(-c2cc(C)ccc2C)nn1C [METHYL 2-(2-((3-(2,5-DIMETHYLPHENYL)-1,4-DIMETHYL-1H-PYRAZOL-5-YLOXY)METHYL)PHENYL)-3-METHOXYACRYLATE] | 0% | 20% | 100% | 0% | 50% | 100% | 0% | 0% | 80% | 100% | 50% | 100% | – | – | – | – | – | –
CCOc1ccc(-c2nn(C)c(OCc3ccccc3/C(=C\OC)C(=O)OC)c2C)cc1 [METHYL 2-(2-((3-(4-ETHOXYPHENYL)-1,4-DIMETHYL-1H-PYRAZOL-5-YLOXY)METHYL)PHENYL)-3-METHOXYACRYLATE] | 20% | 35% | 100% | 65% | 100% | 100% | 0% | 0% | 50% | 100% | 100% | 100% | – | – | – | – | – | –
CO/C=C(/C(=O)OC)c1ccccc1COc1cc(-c2ccc(C)c(C)c2)nn1C [METHYL 2-(2-((3-(3,4-DIMETHYLPHENYL)-1-METHYL-1H-PYRAZOL-5-YLOXY)METHYL)PHENYL)-3-METHOXYACRYLATE] | 0% | 0% | 100% | 80% | 100% | 100% | 35% | 40% | 100% | 100% | 50% | 100% | – | – | – | – | – | –
CC(C)(C)c1ccc(CSc2cnn(C(C)(C)C)c(=O)c2Cl)cc1 [PYRIDABEN] | – | – | – | – | – | – | – | – | – | – | – | – | 0% | 12% | 22% | 48% | 57% | 77%
